Data as given in DBAASP.
Converted amounts (≈) assume the structure as drawn.

Tests used:
Experiment in all cases: ≥ marks a high value that may be exact or a test limit, other limits are often not marked, values filed in µg/mL are converted to µM
[1] = test system: Candida albicans NCPF 1467
[2] = test system: Staphylococcus aureus NCTC 10788
[3] = test system: Salmonella enterica subsp. enterica serovar Typhi ATCC 6399
Streptococcus agalactiae = test system: Streptococcus agalactiae
[4] = test system: Staphylococcus aureus ATCC 25923
[5] = test system: Listeria monocytogenes ATCC 7644
[6] = test system: Bacillus subtilis ATCC 6633
Shigella flexneri = test system: Shigella flexneri
[7] = test system: Escherichia coli ATCC 25922
[8] = test system: Candida albicans ATCC 20032
[9] = test system: Stenotrophomonas maltophilia B32/1
[10] = test system: Acinetobacter baumannii NM35
[11] = test system: Stenotrophomonas maltophilia B32/4
[12] = test system: Acinetobacter baumannii NM8
[13] = test system: Escherichia coli ATCC 25726
[14] = test system: Staphylococcus aureus 127/08
[15] = test system: Pseudomonas aeruginosa ATCC 27853
[16] = test system: Corynebacterium xerosis C875
Escherichia coli DC2 = test system: Escherichia coli DC2
Escherichia coli UB1005 = test system: Escherichia coli UB1005
[17] = test system: Staphylococcus epidermidis C621
[18] = test system: Candida albicans ATCC 90028
Staphylococcus aureus = test system: Staphylococcus aureus
Enterobacter cloacae = test system: Enterobacter cloacae
[19] = test system: Salmonella enterica subsp. enterica serovar Typhi
Escherichia coli = test system: Escherichia coli
Bacillus subtilis = test system: Bacillus subtilis
Pseudomonas aeruginosa = test system: Pseudomonas aeruginosa
[20] = test system: Micrococcus luteus CVCC 1600
[21] = test system: Bacillus pumilus CVCC 709
[22] = test system: Staphylococcus aureus CVCC 1882
[23] = test system: Escherichia coli CVCC 1570
[24] = test system: Bacillus subtilis CVCC 717

**Q.** For `CC[C@H](C)[C@H](NC(=O)[C@H](C)NC(=O)CNC(=O)[C@H](CC(C)C)NC(=O)[C@@H](N)Cc1ccccc1)C(=O)N[C@@H](C)C(=O)N[C@@H](C)C(=O)N[C@@H](C)C(=O)N[C@@H](CC(C)C)C(=O)N1CCC[C@H]1C(=O)N[C@@H](Cc1cnc[nH]1)C(=O)N[C@H](C(=O)N[C@H](C(=O)N[C@@H](CC(N)=O)C(=O)N[C@@H](C)C(=O)N[C@H](C(=O)N[C@H](C(=O)N[C@@H](CC(N)=O)C(=O)N[C@@H](C)C(=O)N[C@@H](CC(C)C)C(=O)O)[C@@H](C)O)C(C)C)[C@@H](C)CC)C(C)C` [FLGAIAAALPHVINAVTNAL], which MIC [1] is on record?
**A.** ≥ 120 µM

**Q.** And the MIC [2]?
**A.** 16 µM (≈ 31.6 µg/mL)

**Q.** For `CC[C@H](C)[C@H](NC(=O)[C@H](CC(C)C)NC(=O)[C@H](CCCCN)NC(=O)[C@H](CC(C)C)NC(=O)[C@H](C)NC(=O)CNC(=O)[C@H](CCCCN)NC(=O)[C@H](C)NC(=O)[C@H](CC(C)C)NC(=O)[C@H](C)NC(=O)CNC(=O)[C@H](Cc1c[nH]c2ccccc12)NC(=O)[C@@H](N)Cc1ccccc1)C(=O)NCC(=O)N[C@H](C(=O)NCC(=O)N[C@@H](CO)C(=O)N[C@@H](CC(C)C)C(=O)N[C@@H](Cc1ccccc1)C(=O)N[C@@H](CO)C(=O)N[C@@H](CO)C(=O)N[C@@H](Cc1ccccc1)C(=O)N[C@@H](CO)C(=O)N[C@@H](CCCCN)C(=O)N[C@@H](CCCCN)C(=O)N[C@@H](CC(=O)O)C(=O)O)C(C)C` [FWGALAKGALKLIGVGSLFSSFSKKD], which MIC [3] is on record?
**A.** ≥ 37.5 µM

**Q.** What about the MIC (Streptococcus agalactiae) of the same molecule?
**A.** ≥ 37.5 µM

**Q.** What about the MIC [4] of the same molecule?
**A.** 75 µM (≈ 205 µg/mL)

**Q.** And the MIC [5]?
**A.** ≥ 37.5 µM

**Q.** And the MIC [6]?
**A.** ≥ 37.5 µM

**Q.** And the MIC (Shigella flexneri)?
**A.** ≥ 37.5 µM

**Q.** What about the MIC [7] of the same molecule?
**A.** 37.5 µM (≈ 102 µg/mL)

**Q.** What does the source list for `CC[C@H](C)[C@H](NC(=O)CN)C(=O)NCC(=O)NCC(=O)N[C@@H](C)C(=O)N[C@@H](CC(C)C)C(=O)N[C@@H](CC(C)C)C(=O)N[C@@H](CO)C(=O)N[C@H](C(=O)NCC(=O)N[C@@H](CCCCN)C(=O)N[C@@H](CO)C(=O)N[C@@H](C)C(=O)N[C@@H](CC(C)C)C(=O)N[C@@H](CCCCN)C(=O)NCC(=O)N[C@@H](CC(C)C)C(=O)N[C@H](C(=O)N[C@@H](CCCCN)C(=O)NCC(=O)N[C@@H](CC(C)C)C(=O)N[C@@H](C)C(=O)N[C@@H](CCC(=O)O)C(=O)N[C@@H](Cc1cnc[nH]1)C(=O)N[C@@H](Cc1ccccc1)C(N)=O)[C@@H](C)O)C(C)C` [GIGGALLSVGKSALKGLTKGLAEHF]?
**A.** MIC [4]: 30.9 µM (≈ 75 µg/mL); MIC [6]: ≥ 41.2 µM; MIC [7]: > 41.2 µM; MIC [8]: ≥ 41.2 µM

**Q.** `CC[C@H](C)[C@@H]1NC(=O)[C@H](CCCCN)NC(=O)[C@@H](NC(=O)[C@H](C)NC(=O)[C@@H](NC(=O)[C@H](CC(C)C)NC(=O)[C@H](CC(=O)O)NC(=O)[C@@H](NC(=O)CNC(=O)[C@H](CC(C)C)NC(=O)[C@H](CCCCN)NC(=O)[C@H](C)NC(=O)[C@H](CC(C)C)NC(=O)[C@H](CC(=O)O)NC(=O)[C@H](CCCCN)NC(=O)CNC(=O)[C@H](CC(C)C)NC(=O)CN)C(C)C)C(C)C)CSSC[C@@H](C(=O)O)NC(=O)[C@H](CCC(N)=O)NC(=O)[C@H](CCCCN)NC(=O)[C@H](CO)NC1=O` [GLGKDLAKLGVDLVACKISKQC] was tested. Which MIC [9] did it give?
**A.** ≥ 200 µM

**Q.** What about the MIC [4] of the same molecule?
**A.** > 200 µM

**Q.** What about the MIC [10] of the same molecule?
**A.** ≥ 200 µM

**Q.** And the MIC [11]?
**A.** ≥ 200 µM

**Q.** And the MIC [12]?
**A.** ≥ 200 µM

**Q.** What about the MIC [13] of the same molecule?
**A.** ≥ 200 µM

**Q.** What about the MIC [14] of the same molecule?
**A.** ≥ 200 µM

**Q.** `CC[C@H](C)[C@H](N)C(=O)N[C@@H](CC(C)C)C(=O)NCC(=O)N[C@@H](CC(C)C)C(=O)N[C@H](C(=O)N[C@H](C(=O)N[C@@H](CO)C(=O)N[C@H](C(=O)N[C@H](C(=O)NCC(=O)N[C@@H](CC(N)=O)C(=O)N[C@H](C(=O)N[C@@H](CC(C)C)C(=O)NCC(=O)NCC(=O)N[C@@H](CC(C)C)C(=O)N[C@@H](CC(C)C)C(=O)N[C@@H](CCCCN)C(=O)N[C@@H](CC(N)=O)C(=O)N[C@@H](CC(C)C)C(N)=O)C(C)C)[C@@H](C)CC)[C@@H](C)O)[C@@H](C)CC)C(C)C` [ILGLVISTIGNVLGGLLKNL] was tested. Which MIC [4] did it give?
**A.** > 49.8 µM

**Q.** And the MIC [6]?
**A.** ≥ 49.8 µM

**Q.** What about the MIC [7] of the same molecule?
**A.** > 49.8 µM

**Q.** What about the MIC [8] of the same molecule?
**A.** ≥ 49.8 µM

**Q.** Which MIC [15] does the source give for `C[C@H](NC(=O)[C@H](C)NC(=O)[C@H](C)NC(=O)[C@H](Cc1c[nH]c2ccccc12)NC(=O)[C@H](Cc1ccccc1)NC(=O)[C@H](C)NC(=O)[C@H](C)NC(=O)[C@H](C)NC(=O)[C@H](C)NC(=O)[C@H](CCCCN)NC(=O)[C@H](CCCCN)NC(=O)[C@H](CCCCN)NC(=O)[C@H](CCCCN)NC(=O)[C@H](CCCCN)NC(=O)[C@@H](N)CCCCN)C(=O)N[C@@H](C)C(=O)N[C@@H](Cc1ccccc1)C(N)=O` [KKKKKKAAAAFWAAAAF] here?
**A.** 16 µM (≈ 29.4 µg/mL)

**Q.** What about the MIC [16] of the same molecule?
**A.** 0.5 µM (≈ 0.918 µg/mL)

**Q.** What about the MIC (Escherichia coli DC2) of the same molecule?
**A.** 0.5 µM (≈ 0.918 µg/mL)

**Q.** And the MIC (Escherichia coli UB1005)?
**A.** 2 µM (≈ 3.67 µg/mL)

**Q.** What about the MIC [7] of the same molecule?
**A.** 16 µM (≈ 29.4 µg/mL)

**Q.** What about the MIC [17] of the same molecule?
**A.** 8 µM (≈ 14.7 µg/mL)

**Q.** For `CC(C)C[C@H](NC(=O)[C@H](CCCCN)NC(=O)[C@H](CCCN=C(N)N)NC(=O)[C@H](Cc1ccccc1)NC(=O)[C@H](Cc1ccccc1)NC(=O)[C@H](CCCCN)NC(=O)[C@H](CCCCN)NC(=O)[C@H](Cc1ccccc1)NC(=O)[C@H](CCCN=C(N)N)NC(=O)[C@H](CCCCN)NC(=O)[C@@H](NC(=O)[C@@H](N)CC(C)C)C(C)C)C(=O)N[C@@H](CCCCN)C(=O)N[C@@H](CCCCN)C(=O)N[C@@H](CO)C(=O)N[C@H](C(=O)N[C@@H](CCCCN)C(=O)N[C@@H](CCCCN)C(N)=O)C(C)C` [LVKRFKKFFRKLKKSVKK], which MIC [18] is on record?
**A.** 27.7 µM (≈ 64 µg/mL)

**Q.** And the MIC (Staphylococcus aureus)?
**A.** 55.4 µM (≈ 128 µg/mL)

**Q.** And the MIC [15]?
**A.** 27.7 µM (≈ 64 µg/mL)

**Q.** What about the MIC (Enterobacter cloacae) of the same molecule?
**A.** ≥ 55.4 µM

**Q.** And the MIC [19]?
**A.** 0.866 µM (≈ 2 µg/mL)

**Q.** And the MIC (Escherichia coli)?
**A.** 55.4 µM (≈ 128 µg/mL)

**Q.** And the MIC (Bacillus subtilis)?
**A.** 27.7 µM (≈ 64 µg/mL)

**Q.** What about the MIC (Pseudomonas aeruginosa) of the same molecule?
**A.** 3.46 µM (≈ 8 µg/mL)

**Q.** And the MIC [4]?
**A.** 1.73 µM (≈ 4 µg/mL)

**Q.** What about the MIC [7] of the same molecule?
**A.** 6.93 µM (≈ 16 µg/mL)

**Q.** For `CC(C)C[C@H](NC(=O)[C@H](CCCCN)NC(=O)[C@H](CCCN=C(N)N)NC(=O)[C@H](Cc1ccccc1)NC(=O)[C@H](Cc1ccccc1)NC(=O)[C@H](CCCCN)NC(=O)[C@H](CCCCN)NC(=O)[C@H](Cc1ccccc1)NC(=O)[C@H](CCCN=C(N)N)NC(=O)[C@H](CCCCN)NC(=O)[C@@H](NC(=O)[C@@H](N)CC(C)C)C(C)C)C(=O)N[C@@H](CCCCN)C(=O)N[C@@H](CCCCN)C(=O)N[C@@H](CO)C(=O)N[C@H](C(=O)N[C@@H](CCCCN)C(N)=O)C(C)C` [LVKRFKKFFRKLKKSVK], which MIC [18] is on record?
**A.** 14.7 µM (≈ 32 µg/mL)

**Q.** What about the MIC (Staphylococcus aureus) of the same molecule?
**A.** 58.7 µM (≈ 128 µg/mL)

**Q.** And the MIC [15]?
**A.** 29.3 µM (≈ 64 µg/mL)

**Q.** And the MIC (Enterobacter cloacae)?
**A.** 14.7 µM (≈ 32 µg/mL)

**Q.** And the MIC [19]?
**A.** 0.917 µM (≈ 2 µg/mL)

**Q.** And the MIC (Escherichia coli)?
**A.** 14.7 µM (≈ 32 µg/mL)

**Q.** What about the MIC (Bacillus subtilis) of the same molecule?
**A.** 14.7 µM (≈ 32 µg/mL)

**Q.** What about the MIC (Pseudomonas aeruginosa) of the same molecule?
**A.** 1.83 µM (≈ 4 µg/mL)

**Q.** What about the MIC [4] of the same molecule?
**A.** 117 µM (≈ 256 µg/mL)

**Q.** And the MIC [7]?
**A.** 117 µM (≈ 256 µg/mL)

**Q.** For `CC(C)[C@H](NC(=O)[C@@H]1CCCN1C(=O)[C@@H]1CCCN1C(=O)[C@@H](NC(=O)[C@@H](N)Cc1ccc(O)cc1)C(C)C)C(=O)N[C@@H](CCC(N)=O)C(=O)N[C@@H](CCCCN)C(=O)N1CCC[C@H]1C(=O)N[C@@H](Cc1cnc[nH]1)C(=O)N1CCC[C@H]1C(=O)N[C@@H](CC(N)=O)C(=O)NCC(=O)N1CCC[C@H]1C(=O)N[C@@H](CCCCN)C(=O)N[C@@H](Cc1ccccc1)C(=O)N1CCC[C@H]1C(=O)N[C@H](C(=O)N[C@@H](Cc1ccccc1)C(=O)N1CCC[C@H]1C(=O)O)[C@@H](C)O` [YVPPVQKPHPNGPKFPTFP], which MIC [20] is on record?
**A.** 13.3 µM (≈ 28.6 µg/mL)

**Q.** What about the MIC [21] of the same molecule?
**A.** 13.3 µM (≈ 28.6 µg/mL)

**Q.** And the MIC [22]?
**A.** ≥ 133 µM

**Q.** And the MIC [23]?
**A.** 23.3 µM (≈ 50 µg/mL)

**Q.** And the MIC [24]?
**A.** 16.7 µM (≈ 35.9 µg/mL)
